This is an account of results in patent US8633168B2, “Inhibitors of S-adenosyl-L-methionine decarboxylase” (Genzyme Corporation, priority 2007, dated 2014).

One data set has as its target CYP2C19 (Homo sapiens, UniProt P33261). The experiment in a line: Cytochrome P450 inhibition, CYP2C19. The text has this: (§1) This cytochrome P450 high throughput IC50 inhibition assay is utilized for screening potential inhibitors of the 5 major human CYP isozyme catalytic activities (CYP3A4, 2D6, 2C9, 2C19, and 1A2).
In a further data set the test system is T. cruzi. The experiment in a line: Cell-based screening against T. cruzi. Conditions: Trypanosoma cruzi; Screening Data.
Data set [1] is described as follows: Microsomal stability, human. The class given is in vitro ADME. Conditions: for Microsomal stability (CL) human: Table 2; for CLint scaled: Example 12 chart. As to the method:
Liver microsomes and hepatocytes represent an in vitro surrogate for assessing the phase I/II metabolic stability of new discovery leads. Following the incubation of the compounds with microsomes or hepatocytes of different species (e.g., human, rat, dog, monkey, mouse), the samples were transferred to 96 well plates for quantitation using LC/MS/MS. The % of compound remaining was measured and used to calculate clearance and % hepatic blood flow.

The target in another data set is CYP2D6 (Homo sapiens, UniProt P10635). Nature of the data set: Cytochrome P450 inhibition, CYP2D6.
From the text: as §1

A further data set in a line: Mouse PK study. The class given is in vivo. The settings on record: for t/2 in mouse: Table 3. As to the method: The rodent PK study designs provide reliable estimation of PK parameters using fewer animals. Often two routes, PO and IV, were included in the rodent PK study protocols with three subjects in each dosing group (often PO at 10 mg/kg and IV at 3 mg/kg).
The next data set has as its system Schistosomes adult. The experiment in a line: Screening against Schistosomes, adult. The class given is cell-based. The settings on record: Screening Data.
The target of the next data set is T1, T. brucei SAM DC (Trypanosoma brucei brucei, UniProt P50244).
T1 construct: made in house
T1 sequence (P50244 86-370 limits assumed): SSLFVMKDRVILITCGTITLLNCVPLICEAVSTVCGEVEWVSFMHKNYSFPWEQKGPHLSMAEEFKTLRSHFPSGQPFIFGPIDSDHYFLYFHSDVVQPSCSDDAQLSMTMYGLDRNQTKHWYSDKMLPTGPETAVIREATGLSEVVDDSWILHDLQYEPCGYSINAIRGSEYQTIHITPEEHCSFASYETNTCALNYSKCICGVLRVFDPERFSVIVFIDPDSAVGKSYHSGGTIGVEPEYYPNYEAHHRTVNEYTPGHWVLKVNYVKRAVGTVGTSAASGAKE
Nature of the data set: SAMDC enzyme inhibition assay (14CO2 release from 14C-AdoMet). It counts as biochemical. The settings on record: Table 1; read-out: kinact/Ki^app against SAM DC enzyme by SW (converted). As to the method: Steady state kinetics were performed as described (Kinch, L. N., J. R. Scott, B. Ullman, and M. A. Phillips. “Cloning and Kinetic Characterization of the Trypanosoma Cruzi S-Adenosylmethionine Decarboxylase.” Mol Biochem Parasitol 101, no. 1-2 (1999): 1-11. Beswick, T. C., E. K. Willert, and M. A. Phillips. “Mechanisms of Allosteric Regulation of Trypanosoma Cruzi S-Adenosylmethionine Decarboxylase.” Biochemistry 45, no. 25 (2006): 7797-807.). This assay measures the amount of ^14CO2 elaborated by enzymatic cleavage of ^14C-AdoMet. Reactions were carried out in assay buffer (100 mM Hepes pH 8.0, 50 mM NaCl, and 1 mM DTT) using the AdoMetDC/AdoMetDC Prozyme complex at ^14C-AdoMet concentrations of 10-160 μM with saturating putrescine (5 mM) (Willert E K, Phillips M A, 2007. “Allosteric regulation of an essential trypanosome polyamine biosynthetic enzyme by a catalytically dead homolog”. Proc Natl Acad Sci USA 104: 8275-8280). The reaction components were added to a test tube on ice to a total final volume of 100 μl. The reaction was initiated by the addition of enzyme (1-4 μM for T. brucei SAM DC), and a piece of filter paper soaked in saturated barium hydroxide was hung on the side of the test tube, which was then capped with a rubber stopper. Reactions were incubated at 37° C. in a water bath for 5-40 minutes. The assay was stopped by the addition of 200 μl 6 M HCl. The quenched reaction was kept at 37° C. for at least 30 minutes to allow for evolution of the CO2 from the solution. The filter paper was then added to 5 ml of scintillation fluid and counted. Test compounds were assessed over a range of 4 concentrations. Kinetic and regression analysis were performed using GraphPad Prism™.
Purified, recombinant T. brucei SAM-decarboxylase and its prozyme are prepared and assayed in the laboratory of Dr. Phillips according to procedures from that lab. Kinch L N, Scott J R, Ullman B, Phillips M A, “Cloning and kinetic characterization of the Trypanosoma cruzi S-adenosylmethionine decarboxylase,” Mol Biochem Parasitol 101: 1-11. Willert E K, Fitzpatrick R, Phillips M A, 2007 (1999). Briefly, the assay employs ^14C-labelled S-adenosyl methionine (^14C-AdoMet). Reactions are carried out in buffer (100 mM Hepes pH 8.0, 50 mM NaCl, and 5 mM DTT) at ^14C-AdoMet concentrations of 10-160 μM with saturating putrescine (5 mM). The reaction components are added to a test tube on ice to a total final volume of 100 μl. The reaction is initiated by the addition of enzyme (1-4 μM for T. brucei SAM DC), and a piece of filter paper soaked in saturated barium hydroxide is hung on the side of the test tube, which is then capped with a rubber stopper. Reactions are incubated at 37° C. in a water bath for 5-40 minutes. The assay is stopped by the addition of 200 μl 6 M HCl. The quenched reaction is kept at 37° C. for at least 30 minutes to allow for evolution of the CO2 from the solution. The filter paper is then added to 5 ml of scintillation fluid and counted. Test compounds were assessed over a range of 4 concentrations. Kinetic and regression analysis are performed using GraphPad Prism.™ Results of this test are exemplified in FIG. 4.

For the next data set, the system named is L. donovani (axenic). Nature of the data set: Screening against L. donovani (axenic). The class given is cell-based. The settings on record: Leishmania donovani; Screening Data.
For a further data set, the target named is CYP2C9 (Homo sapiens, UniProt P11712). The experiment in a line: Cytochrome P450 inhibition, CYP2C9.
From the text: as §1

A further data set is described as follows: Mouse brain exposure. Conditions: for AUC / Kp: Table 3; for AUC: mouse brain; for Kp: mouse, read-out: Mouse Brain exposure compared with blood AUC (%). It counts as in vivo. As to the method:
This was determined by harvesting brains at selected time points, weighing and extracting total tissue homogenate for LC/MS/MS analysis. The amount of test compound associated with the brain was calculated by subtracting that amount attributable to blood vessels (7%, times the blood exposure levels).

The mark [2] stands for this setting: human, probe fluorometric substrates (not named).
[3] abbreviates: read-out: CYP IC50 2C19, Example 12 chart.
Setting [4] is: read-out: CYP IC50 2D6, Example 12 chart.
[5] abbreviates: read-out: CYP IC50 2C9, Example 12 chart.

Where two headings read alike, the source gives them in different places.

CYP2C19, sequence (P33261 whole entry): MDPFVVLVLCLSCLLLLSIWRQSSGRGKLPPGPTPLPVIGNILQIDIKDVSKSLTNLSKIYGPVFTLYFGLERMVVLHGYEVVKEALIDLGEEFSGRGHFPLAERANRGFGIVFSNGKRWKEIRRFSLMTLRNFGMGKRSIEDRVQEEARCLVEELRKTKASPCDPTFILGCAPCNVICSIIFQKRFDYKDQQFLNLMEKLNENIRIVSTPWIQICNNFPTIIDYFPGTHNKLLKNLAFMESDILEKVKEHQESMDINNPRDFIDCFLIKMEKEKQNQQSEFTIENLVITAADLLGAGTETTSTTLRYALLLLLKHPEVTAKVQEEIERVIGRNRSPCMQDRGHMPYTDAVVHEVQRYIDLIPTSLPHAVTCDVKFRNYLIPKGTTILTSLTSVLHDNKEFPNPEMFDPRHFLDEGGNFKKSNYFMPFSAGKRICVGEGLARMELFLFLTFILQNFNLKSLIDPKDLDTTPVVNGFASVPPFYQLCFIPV
CYP2D6, sequence (P10635 whole entry): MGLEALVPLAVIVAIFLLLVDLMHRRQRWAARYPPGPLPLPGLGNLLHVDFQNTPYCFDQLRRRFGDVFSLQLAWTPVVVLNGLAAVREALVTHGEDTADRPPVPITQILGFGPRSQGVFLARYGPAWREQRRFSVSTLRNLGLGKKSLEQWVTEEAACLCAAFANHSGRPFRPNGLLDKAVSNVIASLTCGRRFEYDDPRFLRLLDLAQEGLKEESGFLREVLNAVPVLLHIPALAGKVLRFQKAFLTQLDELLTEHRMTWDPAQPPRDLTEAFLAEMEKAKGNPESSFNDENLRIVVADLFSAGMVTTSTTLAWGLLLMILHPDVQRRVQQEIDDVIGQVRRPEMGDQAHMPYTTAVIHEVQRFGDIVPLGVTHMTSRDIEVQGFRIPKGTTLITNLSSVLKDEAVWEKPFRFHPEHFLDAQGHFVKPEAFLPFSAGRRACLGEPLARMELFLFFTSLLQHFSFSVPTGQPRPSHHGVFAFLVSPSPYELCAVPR
CYP2C9, sequence (P11712 whole entry): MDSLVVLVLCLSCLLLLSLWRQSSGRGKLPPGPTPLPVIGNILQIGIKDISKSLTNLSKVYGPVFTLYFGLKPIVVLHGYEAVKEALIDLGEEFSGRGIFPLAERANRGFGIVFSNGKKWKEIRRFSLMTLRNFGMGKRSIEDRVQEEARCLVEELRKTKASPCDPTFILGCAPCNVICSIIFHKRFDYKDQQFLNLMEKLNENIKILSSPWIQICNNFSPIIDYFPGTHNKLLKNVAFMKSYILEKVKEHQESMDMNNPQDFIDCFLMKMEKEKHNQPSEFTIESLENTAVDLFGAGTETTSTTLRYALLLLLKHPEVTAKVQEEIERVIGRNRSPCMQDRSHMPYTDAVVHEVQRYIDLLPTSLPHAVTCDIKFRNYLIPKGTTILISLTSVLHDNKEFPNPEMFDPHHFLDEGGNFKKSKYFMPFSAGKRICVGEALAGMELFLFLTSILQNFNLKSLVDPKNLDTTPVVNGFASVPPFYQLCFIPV

In the case of `CN(C/C=C\CN)C[C@H]1O[C@@H](n2cnc3c(N)ncnc32)[C@H](F)[C@@H]1O` (stereo in doubt) [Compound 1], the IC50 on CYP2C19 (setting [2]) was greater than 5 µM; in the data set on T. cruzi, greater than 85 µM; at CYP2D6 (setting [2]), greater than 5 µM; with Schistosomes adult, greater than 10 µM; in the data set on L. donovani (axenic) it was greater than 85 µM; on CYP2C9 (setting [2]) it was greater than 5 µM. Also, in data set [1], the “Microsomal stability (CL) human” value is less than 4.2 mL/min/kg. In data set [1] (liver microsomes), the intrinsic clearance (CLint scaled) is less than 4.5 mL/min/kg. This compound also displayed a pH-dependent lipophilicity (logD) in the data set “LogD” of -1.3. The compound further showed a t/2 in mouse in “Mouse PK study” of 1.93 h. The kinact/KI on T. brucei SAM DC was 3200 M⁻¹ s⁻¹. Further, the AUC in the data set “Mouse brain exposure” came to 26 ng·h/mL. Besides, in the data set “Mouse brain exposure” (brain relative to blood), the Kp stood at 0.0016.
Take `Cc1nc2c(N)ncnc2n1[C@@H]1O[C@H](CN(C)C/C=C\CN)[C@@H](O)[C@H]1O` (stereo in doubt) [Compound 4]: the half-inhibitory concentration (IC50) at CYP2C19 is greater than 5 µM; on CYP2C19 (setting [3]), greater than 5 µM; in the data set on T. cruzi, greater than 85 µM; on CYP2D6, greater than 5 µM; at CYP2D6 (setting [4]), greater than 5 µM; in the data set with Schistosomes adult it was greater than 10 µM. The IC50 in the data set on L. donovani (axenic) is greater than 85 µM; against CYP2C9, greater than 5 µM; on CYP2C9 (setting [5]), greater than 5 µM. In data set [1], the “Microsomal stability (CL) human” value is recorded as less than 4.2 mL/min/kg. The compound further gave a CLint scaled in data set [1] (liver microsomes) of less than 4.5 mL/min/kg. Also, the logD in the data set “LogD” (Example 12 chart) is recorded as −1.4. Further, the t/2 in mouse in the data set “Mouse PK study” turned out to be 7.43 h. In the data set “Mouse PK study” (vs MDL-73811), the “t/2, fold greater than that for MDL-73811” value was roughly 3 fold. The kinact/KI at T. brucei SAM DC was 130000 M⁻¹ s⁻¹. Besides, the exposure (AUC) in “Mouse brain exposure” turned out to be 1180 ng·h/mL. For the same compound, in “Mouse brain exposure” (brain relative to blood), the Kp was found to be 0.066. Further, the “percentage of brain blood barrier penetration (compared with MDL-73811)” value in “Mouse brain exposure” (text b82) is given as “higher percentage of brain blood barrier penetration”. Also, the “mouse brain exposure, fold greater than for MDL 73811” value in the data set “Mouse brain exposure” (vs MDL73811) is reported as roughly 4 fold.
`CN(C/C=C\CN)C[C@H]1O[C@@H](n2cnc3c(N)ncnc32)[C@@H](F)[C@@H]1O` [Compound 2]: the concentration for half-maximal inhibition (IC50) on CYP2C19 was greater than 5 µM; on CYP2C19 (setting [3]), greater than 5 µM; with T. cruzi, greater than 85 µM; against CYP2D6, greater than 5 µM; at CYP2D6 (setting [4]), greater than 5 µM; in the data set on Schistosomes adult, greater than 10 µM. Moreover, the values for the IC50 with L. donovani (axenic), on CYP2C9 and at CYP2C9 (setting [5]) were greater than 85 µM, greater than 5 µM and greater than 5 µM, respectively. Further, the “Microsomal stability (CL) human” value in data set [1] is less than 4.2 mL/min/kg. Further, the CLint scaled in data set [1] (liver microsomes) is less than 4.5 mL/min/kg. In “LogD”, the log distribution coefficient (logD) is -1.2. On T. brucei SAM DC, the kinact/KI is 32700 M⁻¹ s⁻¹.
As to `CN(C/C=C\CN)C[C@H]1O[C@@H](n2cnc3c(N)nc(Cl)nc32)[C@H](O)[C@@H]1O` [Compound 3], the half-inhibitory concentration (IC50) on CYP2C19 is greater than 5 µM; at CYP2C19 (setting [3]), greater than 5 µM; in the data set on T. cruzi, greater than 85 µM; at CYP2D6 it was greater than 5 µM; at CYP2D6 (setting [4]) it was greater than 5 µM; in the data set on Schistosomes adult, greater than 10 µM. For the same compound, the 50% inhibitory concentration (IC50) is greater than 85 µM with L. donovani (axenic), greater than 5 µM at CYP2C9 and greater than 5 µM on CYP2C9 (setting [5]). Besides, in [1], the “Microsomal stability (CL) human” value is reported as less than 4.2 mL/min/kg. The CLint scaled in data set [1] (liver microsomes) is less than 4.5 mL/min/kg. Also, the t/2 in mouse in “Mouse PK study” was determined as 1.66 h. In addition, on T. brucei SAM DC, the kinact/KI is 300 M⁻¹ s⁻¹. Besides, the AUC in “Mouse brain exposure” worked out at 170 ng·h/mL. For the same compound, in the data set “Mouse brain exposure” (brain relative to blood), the Kp came to 0.0077.
In the case of `CN(C/C=C\CN)CC1OC(n2cnc3c(N)ncnc32)C(O)C1O` (stereo not drawn) [MDL-73811, reference compound], the half-inhibitory concentration (IC50) was greater than 5 µM against CYP2C19; greater than 5 µM on CYP2C19 (setting [3]); 19.4 µM in the data set with T. cruzi; greater than 5 µM on CYP2D6; greater than 5 µM at CYP2D6 (setting [4]); greater than 10 µM in the data set on Schistosomes adult. Also, the IC50 was greater than 85 µM in the data set with L. donovani (axenic), greater than 5 µM at CYP2C9 and greater than 5 µM at CYP2C9 (setting [5]). In addition, the “Microsomal stability (CL) human” value in data set [1] is listed as less than 4.2 mL/min/kg. Besides, the CLint scaled in data set [1] (microsomes) was less than 4.5 mL/min/kg. The t/2 in mouse in “Mouse PK study” is 2.48 h. The kinact/KI at T. brucei SAM DC was 24900 M⁻¹ s⁻¹. For the same compound, in “Mouse brain exposure” (in vivo), the area under the curve (AUC) came out at 280 ng·h/mL. The Kp in “Mouse brain exposure” (in vivo) is 0.0134.
